Laboratory results from US5478809A, “TAN-1511, its derivatives, production and use thereof” (Takeda Chemical Industries, Ltd., priority 1992, dated 1995).
*1 amine or outer side, *2 acyl side, *3 side chain or, on linkers, in order; H or OH if unused. Where a SMILES comes first, the peptide text is derived from it. [ ]: non-standard residue; d: D form. The star is where a group is joined. Dhc(Pam)2 = S-[2,3-bis(hexadecanoyloxy)-(2S)-propyl]-(R)-cysteine, CCCCCCCCCCCCCCCC(=O)OC[C@@H](CSC[C@H](N[*:1])C(=O)[*:2])OC(=O)CCCCCCCCCCCCCCC; Propyl(2R-PamO,3-PamO) = CCCCCCCCCCCCCCCC(=O)OC[C@H](C*)OC(=O)CCCCCCCCCCCCCCC; Palmitoyl = CCCCCCCCCCCCCCCC(=O)*; Myristoyl = CCCCCCCCCCCCCC(=O)*

Experiments:
mice = assay: acute toxicity test to mice; format: in vivo, mouse; details: intraperitoneal administration, dose of 400 mg/kg
Protocol: No mouse administered intraperitoneally with Pam-Dhc(Pam)2 -Gly-Gly-Gly-Glu-Thr-Thr-OH (Compound 1) (SEQ ID No. 89) at a dose of 400 mg/kg was found dead.

spleen cells of mice [1] = assay: number of spleen cells in cyclophosphamide-treated mice (Experimental Example 2); format: in vivo, BALB/c mouse; details: cyclophosphamide singly, 250 mg/kg i.p.; saline/2% gum arabic mice = 100%
Protocol: (§1) A BALB/c mouse was injected intraperitoneally with cyclophosphamide dissolved in physiological saline solution at a dose of 250 mg/kg. From the next day, the animal was administered intraperitoneally for 3 consecutive days with TAN-1511 complex suspended in physiological saline solution containing 2% gum arabic at a dose of 2 mg/kg/day. On the day following completion of the administration, number of trypan blue chromophobic cells of spleen and peritoneal cavity was counted.

[2] = system: peritoneal cavity cells of mice; assay: number of peritoneal cavity cells in cyclophosphamide-treated mice (Experimental Example 2); format: in vivo, BALB/c mouse; details: cyclophosphamide singly, 250 mg/kg i.p.; saline/2% gum arabic mice = 100%
Protocol: as §1

spleen cells of mice [3] = assay: number of spleen cells in cyclophosphamide-treated mice (Experimental Example 4); format: in vivo, BALB/c mouse; details: cyclophosphamide singly, 200 mg/kg i.p.; saline/2% gum arabic mouse = 100%
Protocol: as §1, with “200” for “250”, “day after next,” for “next day,”, “4” for “3”, “the test compound” for “TAN-1511 complex”, “arabic.” for “arabic at a dose of 2 mg/kg/day.”, “spleen” for “spleen and peritoneal cavity”

[4] = system: leukocytes of peripheral blood; assay: enhancing the number of leukocytes in cyclophosphamide-treated mice; format: in vivo, CDF1/Crj mice; details: cyclophosphamide 150 mg/kg orally, then 5% glucose s.c. for 5 days; mice without cyclophosphamide = 100%
Protocol: Six week old female CDF1/Crj mice (5animals/group) were subjected to the experiment. […] From the next day, each animal was administered subcutaneously with the compound suspended in 5% glucose at the following dosages for five days once a day. On the next day after completion of the administration, about 100 μl of peripheral blood was collected from orbital vein using an EDTA-treated glass capillary. Then, the number of leukocytes was counted using a automatic cell analyzer (Sysmex K-2000, Toa Medical Electronics, Japan)

## CCCCCCCCCCCCCCCC(=O)OC[C@H](CSC[C@H](NC(=O)CCCCCCCCCCCCC)C(=O)NCC(=O)NCC(=O)NCC(=O)N[C@@H](CCC(=O)O)C(=O)N[C@H](C(=O)N[C@H](C(=O)O)[C@@H](C)O)[C@@H](C)O)OC(=O)CCCCCCCCCCCCCCC [Compound 9, (2R,6R)-2-Myr-amino-6,7-bis(PamO)-4-THT-Gly-Gly-Gly-Glu-Thr-Thr-OH] (Myristoyl-C(Propyl(2R-PamO,3-PamO))GGGETT-OH)
mice
  mice found dead / killed: No mouse was killed

## Pam-Dhc(Pam)2 -Gly-Gly-Gly-Glu-Thr-Thr-OH (Palmitoyl-[Dhc(Pam)2]GGGETT-OH; SMILES CCCCCCCCCCCCCCCC(=O)N[C@@H](CSC[C@H](COC(=O)CCCCCCCCCCCCCCC)OC(=O)CCCCCCCCCCCCCCC)C(=O)NCC(=O)NCC(=O)NCC(=O)N[C@@H](CCC(=O)O)C(=O)N[C@H](C(=O)N[C@H](C(=O)O)[C@@H](C)O)[C@@H](C)O) [Compound 1]
mice
  mice found dead / killed: No mouse

## O=P1(N(CCCl)CCCl)NCCCO1 (stereo not drawn) [Cyclophosphamide]
Spleen cells of mice [1]
  Number of spleen cells (%): 11.8%
[2]
  Number of peritoneal cavity cells (%): 27.7%
Spleen cells of mice [3]
  Number of abdominal cavity cells (%): 33.4%
[4]
  average value and standard deviation of leukocyte numbers: 41±11%
